Patent publication US20130252890A1, “6,7-DIHYDRO-5H-BENZO[7]ANNULENE DERIVATIVES, PROCESS FOR PREPARATION THEREOF, PHARMACEUTICAL PREPARATIONS COMPRISING THEM, AND THE USE THEREOF FOR PRODUCTION OF MEDICAMENTS” (BAYER INTELLECTUAL PROPERTY GMBH, priority 2010, published 2013)
Entries after “also recorded” stand apart in the source; their conditions may differ.

Experiments:
ERα protein = biological target: T1, ERα protein (Homo sapiens, UniProt P03372); assay: Effect on stability of ERα protein in T47D breast cancer cells (ELISA); type: cell-based; conditions: 24 hours, ER protein by ELISA
T1 construct: These cells express the ER in functional form; endogenous in cells; host or cells: T47D breast cancer cells
T1 sequence (P03372 1-595): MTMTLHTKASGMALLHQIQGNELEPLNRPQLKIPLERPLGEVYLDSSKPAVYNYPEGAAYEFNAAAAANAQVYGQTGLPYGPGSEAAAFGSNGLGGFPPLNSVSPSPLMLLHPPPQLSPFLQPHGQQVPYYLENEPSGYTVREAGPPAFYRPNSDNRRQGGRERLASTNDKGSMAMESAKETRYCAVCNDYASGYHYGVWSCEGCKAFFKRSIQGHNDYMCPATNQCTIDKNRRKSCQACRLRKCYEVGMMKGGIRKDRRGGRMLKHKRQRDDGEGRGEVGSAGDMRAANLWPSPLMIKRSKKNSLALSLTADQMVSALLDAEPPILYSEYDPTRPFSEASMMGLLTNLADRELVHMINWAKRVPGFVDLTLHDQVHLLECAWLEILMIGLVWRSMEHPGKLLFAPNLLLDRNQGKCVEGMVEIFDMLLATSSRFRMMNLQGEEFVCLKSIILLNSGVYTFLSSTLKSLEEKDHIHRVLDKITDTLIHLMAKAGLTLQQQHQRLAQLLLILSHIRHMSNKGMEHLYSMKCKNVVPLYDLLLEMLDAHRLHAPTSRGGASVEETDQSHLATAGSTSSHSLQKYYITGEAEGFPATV
Protocol: As well as inhibition of the transcriptional activity of the ER, anti-oestrogens influence the expression level of the ER in the target tissues through stimulation of the proteolytic degradation of the ER. In comparison with an ER-E2 complex, the ER bound in a complex with the pure anti-oestrogen fulvestrant has a substantially shorter half-life.
The effect of the claimed pharmacological compounds on the stability of the ER was analysed in T47D breast cancer cells (see Table 1, column Standardized ER-destabilization [%]). These cells express the ER in functional form. The cells are incubated for 24 hours with the claimed compounds at a concentration of 1 μM. After lysis of the cells, the content of ER protein was determined by ELISA. […] Compounds with ER content below 30% are classified as destabilizing.
As described, the claimed pharmacological substances were investigated for their action on the stability of the ERα protein (see Table 1).

oestrogen receptor (ER) = biological target: T2, oestrogen receptor (ER) (Homo sapiens, UniProt P03372); assay: Anti-oestrogenic action in MVLN cells (inhibition of estradiol-induced luciferase); type: cell-based; conditions: inhibition of estradiol-induced luciferase signal, value of Ex. 44 is a mean value, read-out: Antioestrogenic action in vitro: MVLN transactivation antagonism IC50
T2 construct: These MVLN cells express, along with the functional oestrogen receptor (ER), a reporter construct; endogenous in cells; host or cells: MVLN cells (MCF7 derivative carrying a luciferase reporter construct)
T2 sequence (P03372 1-595): T1 sequence (P03372 1-595)
How it was run: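 MVLN cells, MCF7 breast cancer derivatives carrying functional ER plus an ER-activated luciferase reporter, were treated with compounds in the presence of estradiol. Anti-oestrogenic activity taken as inhibition of the estradiol-induced luciferase signal.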

uterus [1] = assay: Oestrogenic action - uterus growth test in the infantile rat; type: in vivo; conditions: sc, 72 h, s.c. 3 days, maximum at dose 0.03 mg/kg, relative to E2 0.3 μg/animal, read-out: maximum uterotropic action (% estradiol action) in the dose range from 0.03 to 3 mg/kg
Protocol: Both the uterus and the vagina show a weight increase that is dependent on oestrogenic efficacy, in infantile animals when they are treated with a substance with oestrogenic action. In the uterus, under oestrogenic action there is also proliferation and increase in height of the luminal epithelium.
Immature, intact rats (n=5-6 animals/group; body weight 40-50 g) receive the substance s.c. for 3 days (d1-d3). On day 4 (d4) the animals are killed with CO2. The uteri are removed and weighed. For histological assessment, a piece of uterus, preferably a uterine horn, is fixed in formaldehyde and embedded in paraffin. The stimulation of the organ weights (relative to mg/100 g body weight) and the height of the epithelium are shown as percentage stimulation in comparison with the reference compound 17β-estradiol (E2). (Substitution dose of E2 0.3 μg/animal).

uterus [2] = assay: Anti-uterus growth test in the adult rat; conditions: sc, 72 h; ovariectomized adult rat, s.c. 3 days with 1.5 μg/kg/day 17β-estradiol; inhibition of uterus growth; value of 44 is a mean of two measurements; read-out: anti-oestrogenic activity in vivo in % at a dose of 0.3 mg/kg (rat)
Excerpt: The uterus of oestrogen-substituted rats can be used as a test model for detecting a direct action of substances with anti-oestrogenic properties. The parameter of oestrogenic action is estradiol-induced uterus growth in rats, which is inhibited by simultaneous administration of a substance with anti-oestrogenic action. The experimental animals (n=5-6 animals/group) were ovariectomized before the start of the test, to rule out the influence of endogenous oestrogens. After a phase of 6 to 10 days, the test substances are administered s.c. on 3 consecutive days (d1-d3) in combination with a substitution dose of 1.5 μg/kg/day 17β-estradiol. 17β-estradiol alone serves as positive control, and the excipients serve as negative control. On day 4 (d4) the animals are killed, and the uteri and vaginae are removed and weighed. The organ weights are converted to mg/100 g body weight, then the mean value and the standard deviation are calculated for each dosage. The inhibition of uterus growth induced by 17β-estradiol is shown as percentage inhibition.

[3] = tested on: peripheral cholesterol level; assay: Hepatic oestrogenicity in the ovariectomized adult rat (plasma cholesterol); type: in vivo; conditions: ovariectomized adult rats, s.c. daily for 6 days; cholesterol day 0 vs day 8
Excerpt: Substances with oestrogenic action influence the synthesis of various plasma proteins, of coagulation factors and fibrinolytic factors in the liver. […] In the present investigations, lowering of the peripheral cholesterol level is used as a surrogate parameter for analysis of the hepatic oestrogenicity of the claimed pharmacological compounds. Adult ovariectomized rats were, after a pause of 6-10 days, treated daily for 6 days with the substances by subcutaneous application. The plasma cholesterol levels were determined and compared before and after the respective treatment.

[4] = tested on: ovarian estradiol synthesis; assay: Stimulation of ovarian oestrogen synthesis (HPG axis) in intact adult rats; type: in vivo, rat; conditions: hormonally intact adult rats, daily for 10 days; quotient of peripheral estradiol values after and before treatment
Excerpt: The clinical use both of pure anti-oestrogens and of various SERMs for the treatment of premenopausal women is limited by their property of stimulating the ovaries through activation of the hypothalamic-pituitary-gonadal axis (HPG axis), which leads to the increase in peripheral estradiol levels (Palomba, S., Orio, F., Jr., Morelli, M., Russo, T., Pellicano, M., Zupi, E., Lombardi, G., Nappi, C., Panici, P. L., and Zullo, F. (2002). Raloxifene administration in premenopausal women with uterine leiomyomas: a pilot study. J Clin Endocrinol Metab 87, 3603-3608). This stimulation of the HPG axis is associated with penetration of the blood-brain barrier and penetration of the brain. To investigate the ovary-stimulating properties of the claimed pharmacological compounds, hormonally intact adult rats were treated with the substances daily for a period of 10 days. The study end point is the quotient of peripheral estradiol values after and before treatment.

endometriosis lesions = assay: Endometriosis model in the rat (autologous transplantation); type: in vivo; conditions: rat
Excerpt: Using intact adult female rats, experimental endometriosis was induced in the autologous transplantation model based on Vernon M. W. and Wilson E. A., 1985 (Fertil Steril. 44(5):684-694). A uterine horn was removed from animals that were exclusively in oestrus, the myometrium was separated from the endometrium and biopsies with dimensions of 4×4 mm were obtained from the endometrial tissue. Two uterine fragments were transplanted onto the inside of the abdominal wall (peritoneum) and two uterine fragments were transplanted onto the mesenterium of the same animal (4 fragments per animal). After 21 days the animals with endometriosis were laparotomized, and the size of the transplants was determined. The animals were treated after laparotomy and then daily in the morning with the stated dosages of the selected claimed substances by subcutaneous administration. Finally, 28 days after the start of treatment (49 days after transplantation), all the animals were laparotomized again and the size of the lesion was measured and was correlated with the size before the start of treatment.

[5] = tested on: trabecular bone density and uterus weight; type: in vivo, rat; conditions: adult ovariectomized rats, 56 days; compound 44 oral 1-10 mg/kg, effect already beginning with 1 mg/kg
Protocol: 3-months-old female rats are ovariectomized and immediately after the operation they are treated with the test compound once daily for 56 days. Application is oral in peanut oil/ethanol. The animals are killed on the day after the last application and the tibia and the uteri are removed. The uteri are weighed, fixed and prepared for histological investigations. Bone density is determined ex vivo on prepared long bones by pQCT (peripheral quantitative computed tomography).
Ovariectomy leads to a decrease in density of the trabecular bone in the measured region. By treatment with a compound of general formula I according to the present invention (dosages of 1-10 mg/kg/day) the decline in bone density is prevented or inhibited. Bone density was measured on the proximal tibia.
The bone-protective action in adult ovariectomized female animals (rat) was investigated as described. […] The selected claimed pharmacological example compound 44 was applied orally at dosages from 1-10 mg/kg.

| Structure (SMILES) | relative ERα content (% ER) (ERα protein) [%] | IC50 (oestrogen receptor (ER)) [nM] | Emax at 0.03 mg/kg (uterus [1]) [%] | inhibition in vivo at 0.3 mg/kg (uterus [2]) [%] | hepatic oestrogenicity: lowering of the peripheral cholesterol level [3] | Stimulation of ovarian oestrogen synthesis: factor at a dose of 3 mg/kg rat [4] | dosage with significant reduction in sizes of lesions (endometriosis lesions; 28 days of treatment, 115 tested 0.1-1 mg/kg, 44 tested 0.3-10 mg/kg) [mg/kg] | reduction of lesion size (endometriosis lesions; s.c. daily, 4 weeks (FIG. 2A, FIG. 2B)) | bone-protective action (trabecular bone mass density, tibia) [5] |
| --- | --- | --- | --- | --- | --- | --- | --- | --- | --- |
| C[C@]12CC[C@@H]3c4ccc(O)cc4C[C@@H](CCCCCCCCC[S+]([O-])CCCC(F)(F)C(F)(F)F)[C@H]3[C@@H]1CC[C@@H]2O (some centres unmarked) [fulvestrant, reference compound] | 0 |  |  |  |  |  |  |  |  |
| CN(CCCCCCC1=C(c2ccc(F)cc2)CCCc2cc(O)ccc21)CCCS(=O)(=O)CCCC(F)(F)C(F)(F)F [Example 115, 8-(4-fluorophenyl)-9-[6-(methyl{3-[(4,4,5,5,5-pentafluoropentyl)sulphonyl]propyl}amino)hexyl]-6,7-dihydro-5H-benzo[7]annulen-3-ol] |  | 13 | 3 | 50 | only observed at high dosage | 2.7 | 1 | significant dose-dependent reduction of lesion size |  |
| O=C(c1ccc(OCCN2CCCCC2)cc1)c1c(-c2ccc(O)cc2)sc2cc(O)ccc12 [raloxifene, reference compound] |  |  | 18 |  | hepatic oestrogenicity at all dosages tested; also recorded: marked lowering of the cholesterol level at all dosages |  |  |  | marked bone protective action |
